Results reported in article PMC8800111 (The Journal of Biological Chemistry, 2021).

How the values were obtained:
Assay type in all cases: cell-based
[1] = molecular target: proteins of U3A human fibrosarcoma cells (4462 proteins detected) (Homo sapiens, UniProt Q8NFI3); conditions: protein ENGASE; soluble abundance after heat, U3A cells
[2] = molecular target: proteins of U3A human fibrosarcoma cells (4462 proteins detected) (Homo sapiens, UniProt O95104); conditions: protein SCAF4; U3A cells
[3] = molecular target: proteins of U3A human fibrosarcoma cells (4462 proteins detected) (Homo sapiens, UniProt Q8N9N8); conditions: protein EIF1AD; U3A, 10 μM, 2 h
[4] = molecular target: proteins of U3A human fibrosarcoma cells (4462 proteins detected) (Homo sapiens, UniProt Q8IY18); conditions: protein SMC5; U3A, 10 μM, 2 h
[5] = molecular target: proteins of U3A human fibrosarcoma cells (4462 proteins detected) (Homo sapiens, UniProt Q7Z4W1); conditions: protein DCXR; soluble abundance after heat, U3A cells
[6] = molecular target: proteins of U3A human fibrosarcoma cells (4462 proteins detected) (Homo sapiens, UniProt P21283); conditions: protein ATP6V1C1; soluble abundance after heat, U3A cells
[7] = molecular target: proteins of U3A human fibrosarcoma cells (4462 proteins detected) (Homo sapiens, UniProt Q9NXR8); conditions: protein ING3, U3A cells
[8] = molecular target: proteins of U3A human fibrosarcoma cells (4462 proteins detected) (Homo sapiens, UniProt Q9H6T3); conditions: protein RPAP3; soluble abundance after heat, U3A cells
[9] = molecular target: proteins of U3A human fibrosarcoma cells (4462 proteins detected) (Homo sapiens, UniProt Q9BUL5); conditions: protein PHF23, U3A cells
[10] = molecular target: proteins of U3A human fibrosarcoma cells (4462 proteins detected) (Homo sapiens, UniProt Q9BUL8); conditions: protein PDCD10; soluble abundance after heat, U3A cells
[11] = molecular target: proteins of U3A human fibrosarcoma cells (4462 proteins detected) (Homo sapiens, UniProt Q8TDN6); conditions: protein BRIX1; U3A cells
[12] = molecular target: proteins of U3A human fibrosarcoma cells (4462 proteins detected) (Homo sapiens, UniProt Q9NQG5); conditions: protein RPRD1B; soluble abundance after heat, U3A cells
[13] = molecular target: proteins of U3A human fibrosarcoma cells (4462 proteins detected) (Homo sapiens, UniProt P57105); conditions: protein SYNJ2BP-COX16; SYNJ2BP, U3A cells
[14] = molecular target: proteins of U3A human fibrosarcoma cells (4462 proteins detected) (Homo sapiens, UniProt Q99848); conditions: protein EBNA1BP2; U3A cells
[15] = molecular target: proteins of U3A human fibrosarcoma cells (4462 proteins detected) (Homo sapiens, UniProt P49840); conditions: protein GSK3A; U3A cells
[16] = molecular target: proteins of U3A human fibrosarcoma cells (4462 proteins detected) (Homo sapiens, UniProt O15164); conditions: protein TRIM24; U3A cells
[17] = molecular target: proteins of U3A human fibrosarcoma cells (4462 proteins detected) (Homo sapiens, UniProt O15042); conditions: protein U2SURP; U3A cells
[18] = molecular target: proteins of U3A human fibrosarcoma cells (4462 proteins detected) (Homo sapiens, UniProt P05556); conditions: protein ITGB1; U3A cells
[19] = molecular target: proteins of U3A human fibrosarcoma cells (4462 proteins detected) (Homo sapiens, UniProt P49368); conditions: protein CCT3; U3A cells
[20] = molecular target: proteins of U3A human fibrosarcoma cells (4462 proteins detected) (Homo sapiens, UniProt P25325); conditions: protein MPST, U3A cells
[21] = molecular target: proteins of U3A human fibrosarcoma cells (4462 proteins detected) (Homo sapiens, UniProt Q8IZL8); conditions: protein PELP1; U3A cells
[22] = molecular target: proteins of U3A human fibrosarcoma cells (4462 proteins detected) (Homo sapiens, UniProt Q9Y2K1); conditions: protein ZBTB1; U3A cells
[23] = molecular target: proteins of U3A human fibrosarcoma cells (4462 proteins detected) (Homo sapiens, UniProt Q13303); conditions: protein KCNAB2, U3A cells
[24] = molecular target: proteins of U3A human fibrosarcoma cells (4462 proteins detected) (Homo sapiens, UniProt Q9NP64); conditions: protein ZCCHC17; soluble abundance after heat, U3A cells
[25] = molecular target: proteins of U3A human fibrosarcoma cells (4462 proteins detected) (Homo sapiens, UniProt P61201); conditions: protein COPS2; U3A cells
[26] = molecular target: proteins of U3A human fibrosarcoma cells (4462 proteins detected) (Homo sapiens, UniProt Q8N5G2); conditions: protein TMEM57; U3A cells
[27] = molecular target: proteins of U3A human fibrosarcoma cells (4462 proteins detected) (Homo sapiens, UniProt Q15149); conditions: protein PLEC; soluble abundance after heat, U3A cells
[28] = molecular target: proteins of U3A human fibrosarcoma cells (4462 proteins detected) (Homo sapiens, UniProt Q86UA6); conditions: protein RPAIN, U3A cells
[29] = molecular target: proteins of U3A human fibrosarcoma cells (4462 proteins detected) (Homo sapiens, UniProt P49458); conditions: protein SRP9, U3A cells
[30] = molecular target: proteins of U3A human fibrosarcoma cells (4462 proteins detected) (Homo sapiens, UniProt Q00765); conditions: protein REEP5; U3A cells

proteins of U3A human fibrosarcoma cells (4462 proteins detected) (Homo sapiens, UniProt O15042), sequence (O15042 whole entry): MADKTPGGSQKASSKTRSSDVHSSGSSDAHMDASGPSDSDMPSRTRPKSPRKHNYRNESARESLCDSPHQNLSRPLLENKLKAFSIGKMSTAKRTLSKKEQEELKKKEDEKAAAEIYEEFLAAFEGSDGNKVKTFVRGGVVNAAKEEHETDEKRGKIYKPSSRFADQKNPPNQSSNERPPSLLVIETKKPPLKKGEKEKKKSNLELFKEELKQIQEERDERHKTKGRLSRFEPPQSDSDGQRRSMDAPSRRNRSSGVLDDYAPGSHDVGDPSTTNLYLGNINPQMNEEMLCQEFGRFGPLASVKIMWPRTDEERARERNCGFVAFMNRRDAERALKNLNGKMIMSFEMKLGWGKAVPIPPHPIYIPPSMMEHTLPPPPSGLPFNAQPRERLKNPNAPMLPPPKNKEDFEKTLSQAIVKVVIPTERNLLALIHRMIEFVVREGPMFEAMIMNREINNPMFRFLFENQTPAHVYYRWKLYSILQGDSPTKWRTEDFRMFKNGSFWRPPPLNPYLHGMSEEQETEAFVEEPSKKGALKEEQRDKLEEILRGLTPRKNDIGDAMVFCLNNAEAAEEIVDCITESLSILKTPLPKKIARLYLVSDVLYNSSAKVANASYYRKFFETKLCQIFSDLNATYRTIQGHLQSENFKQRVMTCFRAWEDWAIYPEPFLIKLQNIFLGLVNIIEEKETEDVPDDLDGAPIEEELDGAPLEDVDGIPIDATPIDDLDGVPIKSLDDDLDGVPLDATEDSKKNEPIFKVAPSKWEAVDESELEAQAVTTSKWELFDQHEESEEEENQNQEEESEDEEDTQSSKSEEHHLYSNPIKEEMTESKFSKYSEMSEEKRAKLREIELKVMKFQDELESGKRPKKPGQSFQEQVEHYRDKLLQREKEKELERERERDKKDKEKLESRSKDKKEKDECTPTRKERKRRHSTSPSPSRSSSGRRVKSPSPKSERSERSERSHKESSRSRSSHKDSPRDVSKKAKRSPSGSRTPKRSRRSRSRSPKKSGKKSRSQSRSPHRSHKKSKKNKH
proteins of U3A human fibrosarcoma cells (4462 proteins detected) (Homo sapiens, UniProt Q99848), sequence (Q99848 whole entry): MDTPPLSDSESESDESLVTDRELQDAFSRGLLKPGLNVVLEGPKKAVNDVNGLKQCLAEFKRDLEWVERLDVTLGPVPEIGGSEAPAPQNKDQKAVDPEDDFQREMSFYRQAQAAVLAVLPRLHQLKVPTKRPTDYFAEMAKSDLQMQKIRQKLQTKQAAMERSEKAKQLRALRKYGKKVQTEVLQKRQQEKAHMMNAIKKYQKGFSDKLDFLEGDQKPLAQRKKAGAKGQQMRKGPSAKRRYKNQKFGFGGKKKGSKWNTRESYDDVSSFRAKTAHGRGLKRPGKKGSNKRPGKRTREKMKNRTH
proteins of U3A human fibrosarcoma cells (4462 proteins detected) (Homo sapiens, UniProt P49368), sequence (P49368 whole entry): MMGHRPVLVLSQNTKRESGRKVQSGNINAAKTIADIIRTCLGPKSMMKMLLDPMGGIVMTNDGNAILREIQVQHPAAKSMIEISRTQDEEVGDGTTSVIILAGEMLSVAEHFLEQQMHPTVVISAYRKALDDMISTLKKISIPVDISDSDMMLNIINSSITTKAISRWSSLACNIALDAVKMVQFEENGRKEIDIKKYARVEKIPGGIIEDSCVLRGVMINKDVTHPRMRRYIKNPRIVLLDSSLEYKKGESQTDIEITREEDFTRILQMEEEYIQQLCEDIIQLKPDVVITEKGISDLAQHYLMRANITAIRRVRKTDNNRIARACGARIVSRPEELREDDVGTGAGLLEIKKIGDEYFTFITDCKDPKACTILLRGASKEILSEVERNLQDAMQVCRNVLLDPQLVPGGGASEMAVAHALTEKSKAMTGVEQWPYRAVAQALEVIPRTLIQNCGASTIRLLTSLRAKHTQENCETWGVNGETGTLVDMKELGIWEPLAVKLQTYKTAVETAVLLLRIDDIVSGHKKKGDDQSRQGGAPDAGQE
proteins of U3A human fibrosarcoma cells (4462 proteins detected) (Homo sapiens, UniProt P49840), sequence (P49840 whole entry): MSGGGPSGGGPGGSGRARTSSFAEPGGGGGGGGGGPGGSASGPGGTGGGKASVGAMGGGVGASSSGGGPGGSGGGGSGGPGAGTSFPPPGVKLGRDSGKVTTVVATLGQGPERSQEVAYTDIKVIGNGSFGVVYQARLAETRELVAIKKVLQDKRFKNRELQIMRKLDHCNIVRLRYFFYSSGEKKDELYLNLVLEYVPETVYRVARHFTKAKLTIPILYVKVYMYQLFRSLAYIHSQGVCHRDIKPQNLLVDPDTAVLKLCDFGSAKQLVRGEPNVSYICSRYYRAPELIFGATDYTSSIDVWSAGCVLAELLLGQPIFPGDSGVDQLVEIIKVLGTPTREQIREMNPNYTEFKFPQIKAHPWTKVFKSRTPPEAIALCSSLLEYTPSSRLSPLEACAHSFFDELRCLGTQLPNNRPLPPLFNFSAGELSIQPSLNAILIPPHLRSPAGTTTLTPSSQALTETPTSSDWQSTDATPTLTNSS
proteins of U3A human fibrosarcoma cells (4462 proteins detected) (Homo sapiens, UniProt P05556), sequence (P05556 21-798): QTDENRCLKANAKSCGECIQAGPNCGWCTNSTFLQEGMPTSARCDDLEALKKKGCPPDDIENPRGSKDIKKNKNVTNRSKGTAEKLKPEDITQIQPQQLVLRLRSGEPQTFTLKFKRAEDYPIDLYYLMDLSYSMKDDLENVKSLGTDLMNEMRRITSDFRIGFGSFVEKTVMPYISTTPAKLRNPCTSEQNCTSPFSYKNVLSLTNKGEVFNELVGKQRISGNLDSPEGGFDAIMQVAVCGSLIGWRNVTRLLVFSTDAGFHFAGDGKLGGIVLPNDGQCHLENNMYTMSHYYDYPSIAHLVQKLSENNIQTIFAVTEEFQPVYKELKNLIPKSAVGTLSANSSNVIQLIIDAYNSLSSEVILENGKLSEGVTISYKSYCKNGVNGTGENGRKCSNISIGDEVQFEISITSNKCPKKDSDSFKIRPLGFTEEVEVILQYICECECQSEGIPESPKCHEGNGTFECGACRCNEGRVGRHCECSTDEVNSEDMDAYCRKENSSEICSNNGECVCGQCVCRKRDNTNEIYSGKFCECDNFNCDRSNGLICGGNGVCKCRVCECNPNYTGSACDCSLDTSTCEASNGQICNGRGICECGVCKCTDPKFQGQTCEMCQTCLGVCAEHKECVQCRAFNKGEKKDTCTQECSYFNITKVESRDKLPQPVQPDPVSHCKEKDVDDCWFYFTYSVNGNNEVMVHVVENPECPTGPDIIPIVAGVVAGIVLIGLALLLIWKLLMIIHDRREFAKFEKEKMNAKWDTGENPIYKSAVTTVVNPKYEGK
proteins of U3A human fibrosarcoma cells (4462 proteins detected) (Homo sapiens, UniProt Q9BUL8), sequence (Q9BUL8 whole entry): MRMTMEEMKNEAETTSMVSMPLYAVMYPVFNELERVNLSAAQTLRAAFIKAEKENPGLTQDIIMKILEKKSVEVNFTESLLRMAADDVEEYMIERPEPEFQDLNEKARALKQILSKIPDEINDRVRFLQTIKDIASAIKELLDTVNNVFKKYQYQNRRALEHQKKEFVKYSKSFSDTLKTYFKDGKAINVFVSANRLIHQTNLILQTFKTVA
proteins of U3A human fibrosarcoma cells (4462 proteins detected) (Homo sapiens, UniProt Q7Z4W1), sequence (Q7Z4W1 whole entry): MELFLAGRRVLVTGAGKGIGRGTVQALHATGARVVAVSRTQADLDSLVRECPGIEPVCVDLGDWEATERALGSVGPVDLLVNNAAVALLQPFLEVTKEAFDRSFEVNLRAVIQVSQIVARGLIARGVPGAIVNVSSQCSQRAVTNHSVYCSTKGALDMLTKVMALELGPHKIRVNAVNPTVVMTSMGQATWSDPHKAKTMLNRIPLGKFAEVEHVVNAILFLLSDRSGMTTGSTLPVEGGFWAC
proteins of U3A human fibrosarcoma cells (4462 proteins detected) (Homo sapiens, UniProt O15164), sequence (O15164 whole entry): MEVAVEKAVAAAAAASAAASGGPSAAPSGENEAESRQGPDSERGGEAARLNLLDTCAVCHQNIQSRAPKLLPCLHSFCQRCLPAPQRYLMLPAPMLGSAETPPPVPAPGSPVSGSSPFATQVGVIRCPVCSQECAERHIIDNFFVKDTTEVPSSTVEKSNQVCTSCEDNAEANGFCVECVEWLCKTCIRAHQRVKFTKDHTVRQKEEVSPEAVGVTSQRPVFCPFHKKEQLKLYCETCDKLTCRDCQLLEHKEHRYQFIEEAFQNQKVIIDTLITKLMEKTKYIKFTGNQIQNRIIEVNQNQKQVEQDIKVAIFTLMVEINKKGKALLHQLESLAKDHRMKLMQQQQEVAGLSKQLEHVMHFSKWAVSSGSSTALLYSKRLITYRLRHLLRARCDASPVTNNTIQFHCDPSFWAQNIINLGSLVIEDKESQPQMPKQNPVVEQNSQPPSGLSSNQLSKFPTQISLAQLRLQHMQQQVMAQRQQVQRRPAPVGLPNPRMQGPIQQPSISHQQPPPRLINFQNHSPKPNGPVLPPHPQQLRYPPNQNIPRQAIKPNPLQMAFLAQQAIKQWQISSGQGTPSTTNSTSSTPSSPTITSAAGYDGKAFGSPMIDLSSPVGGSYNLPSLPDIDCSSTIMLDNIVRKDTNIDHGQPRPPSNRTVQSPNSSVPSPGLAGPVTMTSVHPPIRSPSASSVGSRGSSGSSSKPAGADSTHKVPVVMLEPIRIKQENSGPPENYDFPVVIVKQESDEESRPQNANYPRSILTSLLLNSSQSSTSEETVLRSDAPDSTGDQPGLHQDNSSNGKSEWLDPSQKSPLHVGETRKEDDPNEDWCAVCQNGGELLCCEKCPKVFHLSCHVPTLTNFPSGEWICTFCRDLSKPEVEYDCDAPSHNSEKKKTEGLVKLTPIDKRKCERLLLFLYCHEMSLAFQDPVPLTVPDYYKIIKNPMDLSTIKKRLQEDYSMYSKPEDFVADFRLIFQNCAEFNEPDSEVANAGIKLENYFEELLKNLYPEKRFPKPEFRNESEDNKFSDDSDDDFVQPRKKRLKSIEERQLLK
proteins of U3A human fibrosarcoma cells (4462 proteins detected) (Homo sapiens, UniProt Q86UA6), sequence (Q86UA6 whole entry): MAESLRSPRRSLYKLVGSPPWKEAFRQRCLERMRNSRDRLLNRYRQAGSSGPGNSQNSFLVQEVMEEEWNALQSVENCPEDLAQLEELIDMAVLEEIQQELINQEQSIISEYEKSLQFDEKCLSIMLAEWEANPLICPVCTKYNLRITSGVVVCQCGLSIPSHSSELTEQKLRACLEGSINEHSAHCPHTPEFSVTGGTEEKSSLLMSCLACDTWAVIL
proteins of U3A human fibrosarcoma cells (4462 proteins detected) (Homo sapiens, UniProt P49458), sequence (P49458 whole entry): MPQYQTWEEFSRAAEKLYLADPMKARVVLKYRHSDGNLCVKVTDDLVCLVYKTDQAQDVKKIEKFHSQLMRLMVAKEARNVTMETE

Compound: CCc1nc(N)nc(N)c1-c1ccc(Cl)cc1 [pyrimethamine]
- Log2 (PYR/DMSO) [1]: 0.15
- Log2 (PYR/DMSO) [2]: 0.19
- Log2 (PYR/DMSO), EIF1AD [3]: -0.14
- Log2 (PYR/DMSO), SMC5 [4]: 0.30
- Log2 (PYR/DMSO) [5]: 0.14
- Log2 (PYR/DMSO) [6]: 0.13
- Log2 (PYR/DMSO) [7]: -0.04
- Log2 (PYR/DMSO) [8]: 0.14
- Log2 (PYR/DMSO) [9]: -0.04
- Log2 (PYR/DMSO) [10]: 0.15
- Log2 (PYR/DMSO) [11]: 0.20
- Log2 (PYR/DMSO) [12]: 0.15
- Log2 (PYR/DMSO) [13]: -0.03
- Log2 (PYR/DMSO) [14]: 0.21
- Log2 (PYR/DMSO) [15]: 0.16
- Log2 (PYR/DMSO) [16]: 0.16
- Log2 (PYR/DMSO) [17]: 0.18
- Log2 (PYR/DMSO) [18]: 0.16
- Log2 (PYR/DMSO) [19]: 0.17
- Log2 (PYR/DMSO) [20]: -0.05
- Log2 (PYR/DMSO) [21]: 0.16
- Log2 (PYR/DMSO) [22]: 0.22
- Log2 (PYR/DMSO) [23]: -0.03
- Log2 (PYR/DMSO) [24]: 0.15
- Log2 (PYR/DMSO) [25]: 0.21
- Log2 (PYR/DMSO) [26]: 0.17
- Log2 (PYR/DMSO) [27]: 0.14
- Log2 (PYR/DMSO) [28]: -0.04
- Log2 (PYR/DMSO) [29]: -0.05
- Log2 (PYR/DMSO) [30]: 0.19
